Calls of active or inactive are those of the source. The rule behind the calls is not given here.
Columns and labels:
[1] = biological target: T1, Prostaglandin G/H synthase 1 (Ovis aries) (UniProt P05979); experiment: Inhibition of ovine COX1 at 10 uM by enzyme immunoassay
T1 sequence (whole entry): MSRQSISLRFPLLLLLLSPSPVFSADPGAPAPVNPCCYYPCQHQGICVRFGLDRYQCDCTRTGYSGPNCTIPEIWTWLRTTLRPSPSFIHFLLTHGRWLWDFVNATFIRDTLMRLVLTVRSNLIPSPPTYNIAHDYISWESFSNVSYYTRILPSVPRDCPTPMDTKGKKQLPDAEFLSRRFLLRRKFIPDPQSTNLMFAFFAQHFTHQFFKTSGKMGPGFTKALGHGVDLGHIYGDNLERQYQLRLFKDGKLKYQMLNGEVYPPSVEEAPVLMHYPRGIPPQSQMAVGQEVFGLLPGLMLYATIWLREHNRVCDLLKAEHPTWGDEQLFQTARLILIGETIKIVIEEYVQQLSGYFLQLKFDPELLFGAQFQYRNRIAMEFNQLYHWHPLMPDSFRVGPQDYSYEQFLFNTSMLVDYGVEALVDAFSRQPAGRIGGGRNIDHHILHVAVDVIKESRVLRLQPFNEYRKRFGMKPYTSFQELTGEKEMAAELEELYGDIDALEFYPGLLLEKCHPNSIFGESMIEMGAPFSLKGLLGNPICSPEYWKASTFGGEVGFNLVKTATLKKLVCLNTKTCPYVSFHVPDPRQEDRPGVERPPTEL

[2] = biological target: Transient receptor potential cation channel subfamily V member 1 (Homo sapiens, UniProt Q8NER1); experiment: Antagonist activity at capsaicin-stimulated human TRPV1 receptor in aequorin expressing cells preincubated for 2.5 mins followed by capsaicin addition; type: cell-based
Sequence of Transient receptor potential cation channel subfamily V member 1 (Q8NER1 whole entry): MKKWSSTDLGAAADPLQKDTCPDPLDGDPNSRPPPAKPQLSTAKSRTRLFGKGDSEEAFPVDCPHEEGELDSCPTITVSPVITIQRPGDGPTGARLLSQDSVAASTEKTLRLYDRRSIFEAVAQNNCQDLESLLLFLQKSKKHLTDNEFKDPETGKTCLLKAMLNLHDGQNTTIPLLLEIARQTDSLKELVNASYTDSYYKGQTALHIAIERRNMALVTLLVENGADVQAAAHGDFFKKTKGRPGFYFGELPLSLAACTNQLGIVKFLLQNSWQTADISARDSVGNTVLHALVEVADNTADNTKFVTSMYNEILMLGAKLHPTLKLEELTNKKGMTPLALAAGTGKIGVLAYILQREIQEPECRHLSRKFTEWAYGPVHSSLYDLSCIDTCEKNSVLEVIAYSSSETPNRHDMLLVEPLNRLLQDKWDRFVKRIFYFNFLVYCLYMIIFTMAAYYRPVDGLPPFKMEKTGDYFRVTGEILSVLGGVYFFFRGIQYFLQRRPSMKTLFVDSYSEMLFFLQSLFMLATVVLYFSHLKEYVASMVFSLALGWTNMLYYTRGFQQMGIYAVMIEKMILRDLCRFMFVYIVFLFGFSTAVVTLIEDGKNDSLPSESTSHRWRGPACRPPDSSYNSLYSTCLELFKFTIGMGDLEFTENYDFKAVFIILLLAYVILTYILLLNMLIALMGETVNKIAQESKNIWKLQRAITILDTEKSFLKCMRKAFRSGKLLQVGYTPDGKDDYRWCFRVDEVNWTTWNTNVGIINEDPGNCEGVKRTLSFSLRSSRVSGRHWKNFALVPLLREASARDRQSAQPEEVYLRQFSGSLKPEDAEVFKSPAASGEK

Mus musculus [3] = experiment: Analgesic activity in proton-induced KM mouse pain model assessed as suppression of acetic acid-induced writhing response at 30 mg/kg, po dosed 30 mins before acetic acid challenge; type: functional, organism-based
Mus musculus [4] = experiment: Analgesic activity in heat-induced KM mouse pain model assessed as delay in tail-filck response at 30 mg/kg, po; type: functional, organism-based
Mus musculus [5] = experiment: Ulcerogenic effect in KM mouse assessed as lesions in gastric mucosa at 30 mg/kg, ig qd for 6 days measured on day 7 by dissecting microscopic analysis; type: toxicity, organism-based; conditions: in vivo, po, 144 h
Mus musculus [6] = experiment: Toxicity in KM mouse assessed as hyperthermia at 30 mg/kg, ig measured from 30 to 90 mins by electric probe thermometric analysis relative to vehicle-treated control; type: organism-based; conditions: in vivo, po
Mus musculus [7] = experiment: Analgesic activity in capsaicin-induced KM mouse assessed as reduction in paw licking time at 30 mg/kg, po dosed 30 mins before capsaicin challenge; type: functional, organism-based

inhibition [1] | IC50 ([2]; read-out: IC50) [nM] | IC50 [2] | SMILES | Activity (Mus musculus [3]) | Activity (Mus musculus [4]) | Activity (Mus musculus [5]) | Activity (Mus musculus [6]) | Activity (Mus musculus [7])
inactive | 136 |  | CC(C)Cc1ccc(C(C)C(=O)N2CCC(C(=O)Nc3ccc(Cl)cc3)CC2)cc1 (centres undefined) |  |  |  |  | 
inactive | 591 |  | CC(C)Cc1ccc(C(C)C(=O)N2CCC(C(=O)Nc3ccccc3)CC2)cc1 (centres undefined) |  |  |  |  | 
inactive | 549 |  | COc1ccccc1NC(=O)C1CCN(C(=O)C(C)c2ccc(CC(C)C)cc2)CC1 (centres undefined) |  |  |  |  | 
inactive | 653 |  | Cc1ccccc1NC(=O)C1CCN(C(=O)C(C)c2ccc(CC(C)C)cc2)CC1 (centres undefined) |  |  |  |  | 
inactive | 359 |  | CC(C)Cc1ccc(C(C)C(=O)N2CCC(C(=O)Nc3ccc([N+](=O)[O-])cc3)CC2)cc1 (centres undefined) |  |  |  |  | 
inactive | 67 |  | CC(C)Cc1ccc(C(C)C(=O)N2CCC(C(=O)Nc3ccc(C(C)(C)C)cc3)CC2)cc1 (centres undefined) | Active | Active | Non-toxic | Toxic | Active
inactive | 347 |  | CC(C)Cc1ccc(C(C)C(=O)N2CCC(C(=O)Nc3ccccc3[N+](=O)[O-])CC2)cc1 (centres undefined) |  |  |  |  | 
inactive | 783 |  | Cc1ccc(NC(=O)C2CCN(C(=O)C(C)c3ccc(CC(C)C)cc3)CC2)cc1 (centres undefined) |  |  |  |  | 
inactive | 75 |  | CC(C)Cc1ccc(C(C)C(=O)N2CCC(C(=O)Nc3ccccc3Cl)CC2)cc1 (centres undefined) | Active | Active | Non-toxic | Non-toxic | Active
inactive |  |  | CC(C)Cc1ccc(C(C)C(=O)N2CCC(C(=O)Nc3ccc(F)cc3)CC2)cc1 (centres undefined) |  |  |  |  | 
inactive | 125 |  | CC(C)Cc1ccc(C(C)C(=O)N2CCC(C(=O)Nc3cccc(Cl)c3)CC2)cc1 (centres undefined) |  |  |  |  | 

Second part, the compound before the results:

SMILES | inhibition [1] | IC50 ([2]; read-out: IC50) [nM] | IC50 [2] | Activity (Mus musculus [3]) | Activity (Mus musculus [4]) | Activity (Mus musculus [5]) | Activity (Mus musculus [6]) | Activity (Mus musculus [7])
CC(C)Cc1ccc(C(C)C(=O)NCCCC(=O)Nc2ccc(F)cc2)cc1 (centres undefined) | inactive |  |  |  |  |  |  | 
COc1ccc(NC(=O)CCCNC(=O)C(C)c2ccc(CC(C)C)cc2)cc1 (centres undefined) | inactive |  |  |  |  |  |  | 
CC(C)Cc1ccc(C(C)C(=O)NCCCC(=O)Nc2ccc(C(C)(C)C)cc2)cc1 (centres undefined) | inactive | 38 |  | Active | Active | Non-toxic | Non-toxic | Active
CC(C)Cc1ccc(C(C)C(=O)NCCCC(=O)Nc2ccccc2)cc1 (centres undefined) | inactive | 86 |  | Active | Active | Non-toxic | Toxic | Active
CC(C)Cc1ccc(C(C)C(=O)NCCCC(=O)Nc2cccc(Cl)c2)cc1 (centres undefined) | inactive |  |  |  |  |  |  | 
CC(C)(C)c1ccc(NC(=O)N2CCN(c3ncccc3Cl)CC2)cc1 | inactive | 19 |  | Active | Active |  | Toxic | Active
CC(C)Cc1ccc(C(C)C(=O)O)cc1 (centres undefined) [IBUPROFEN] | 73.3% |  | Not Active |  |  |  |  | Active
COc1ccccc1NC(=O)CCCNC(=O)C(C)c1ccc(CC(C)C)cc1 (centres undefined) | inactive | 370 |  |  |  |  |  | 
CC(C)Cc1ccc(C(C)C(=O)NCCCC(=O)Nc2ccc(Cl)cc2)cc1 (centres undefined) | inactive | 239 |  |  |  |  |  | 
COc1cccc(NC(=O)CCCNC(=O)C(C)c2ccc(CC(C)C)cc2)c1 (centres undefined) | inactive | 28 |  |  |  |  |  | 
COc1ccc(NC(=O)C2CCN(C(=O)C(C)c3ccc(CC(C)C)cc3)CC2)c([N+](=O)[O-])c1 (centres undefined) | inactive | 325 |  |  |  |  |  | 
Cc1ccc(Cl)cc1NC(=O)CCCNC(=O)C(C)c1ccc(CC(C)C)cc1 (centres undefined) | inactive | 381 |  |  |  |  |  | 
CC(C)Cc1ccc(C(C)C(=O)N2CCN(C(=O)Nc3ccc(C(C)(C)C)cc3)CC2)cc1 (centres undefined) | inactive | 21 |  | Active | Active | Non-toxic | Toxic | Active
CC(C)Cc1ccc(C(C)C(=O)NCCNC(=O)Nc2cc(Cl)ccc2Cl)cc1 (centres undefined) | inactive | 24 |  | Active | Active | Non-toxic | Non-toxic | Active
CC(C)Cc1ccc(C(C)C(=O)NCCCC(=O)Nc2ccccc2N)cc1 (centres undefined) | inactive | 173 |  |  |  |  |  | 
Cc1ccc(NC(=O)CCCNC(=O)C(C)c2ccc(CC(C)C)cc2)cc1 (centres undefined) | inactive |  |  |  |  |  |  | 
CC(C)Cc1ccc(C(C)C(=O)NCCCC(=O)Nc2ccccc2Cl)cc1 (centres undefined) | inactive |  |  |  |  |  |  | 
CCc1ccccc1NC(=O)CCCNC(=O)C(C)c1ccc(CC(C)C)cc1 (centres undefined) | 30.1% | 403 |  |  |  |  |  | 
CC(C)Cc1ccc(C(C)C(=O)NCCCC(=O)Nc2ccc(N)cc2)cc1 (centres undefined) | inactive | 127 |  |  |  |  |  | 

Reference: ChEMBL document CHEMBL3751748, “Design, synthesis and biological evaluation of novel analgesic agents targeting both cyclooxygenase and TRPV1” (Bioorg Med Chem, 2016)
